From ChEMBL document CHEMBL1131458, “Design and synthesis of malonic acid-based inhibitors of human neutrophil collagenase (MMP8)” (J Med Chem, 1998)

Biological target: Neutrophil collagenase (Homo sapiens, UniProt P22894)
Experiment: Inhibition of Matrix metalloprotease-8 (Human neutrophil collagenase, MMP-8)

Chain of Neutrophil collagenase (P22894 whole entry): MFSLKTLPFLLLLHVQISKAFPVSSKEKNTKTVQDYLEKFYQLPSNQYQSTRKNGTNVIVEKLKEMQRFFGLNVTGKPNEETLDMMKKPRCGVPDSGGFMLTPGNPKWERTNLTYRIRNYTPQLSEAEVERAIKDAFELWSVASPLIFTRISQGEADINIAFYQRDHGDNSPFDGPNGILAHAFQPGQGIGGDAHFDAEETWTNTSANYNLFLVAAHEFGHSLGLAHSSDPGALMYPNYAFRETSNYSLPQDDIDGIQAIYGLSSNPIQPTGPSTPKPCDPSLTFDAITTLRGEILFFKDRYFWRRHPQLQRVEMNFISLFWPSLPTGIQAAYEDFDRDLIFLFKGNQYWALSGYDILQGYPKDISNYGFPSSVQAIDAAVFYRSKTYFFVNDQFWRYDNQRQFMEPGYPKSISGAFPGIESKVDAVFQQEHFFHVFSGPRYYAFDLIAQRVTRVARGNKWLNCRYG

SMILES | Ki
O=C(NO)C(CCc1ccccc1)C(=O)NCCCc1ccccc1 (stereo not given) | 0.49 µM
CC(C)CC(C(=O)NO)C(=O)Nc1ccccc1C(=O)NCc1ccccc1 (stereo not given) | 36 µM
CCOC(=O)C(Cc1ccccc1)C(=O)NO (stereo not given) | 53 µM
CCOC(=O)C(CCc1ccccc1)C(=O)NO (stereo not given) | 189 µM
CC(C)CC(C(=O)NO)C(=O)NC(CC(=O)O)C(=O)NCc1ccccc1 (stereo in doubt; 12) | 136 µM
O=C(NO)C(O)C(=O)NCCCc1ccccc1 (stereo not given) | 2.3 µM
CC(C)CC(C(=O)NO)C(=O)NC(CC(N)=O)C(=O)NCc1cccc(N)c1 (stereo not given) | 26 µM
Cc1ccc(CCNC(=O)[C@H](CCc2ccccc2)NC(=O)C(CCc2ccccc2)C(=O)NO)cc1 (stereo not given in full) | 4 µM
O=C(NO)C(Cc1ccccc1)C(=O)NCCCc1ccccc1 (stereo not given) | 0.56 µM
COC(=O)c1ccc(CCNC(=O)[C@H](CCc2ccccc2)NC(=O)C(CC(C)C)C(=O)NO)cc1 (stereo not given in full) | 9.6 µM
CC(C)CC(C(=O)NO)C(=O)N[C@@H](CCc1ccccc1)C(=O)NCCc1ccc(C(=O)O)cc1 (stereo not given in full) | 20 µM
CC(C)CC(C(=O)NO)C(=O)NC(C)C(=O)NCc1ccccc1 (stereo not given) | 50 µM
O=C(NO)C(Cc1ccccc1)C(=O)N1CCOCC1 (stereo not given) | 50 µM
O=C(NO)C(Cc1ccccc1)C(=O)NCc1ccccc1 (stereo not given) | 3.1 µM
CC(C)CC(C(=O)NO)C(=O)NC(Cc1ccccc1)C(=O)NCc1ccccc1 (stereo not given) | 25 µM
O=C(NO)C(CCc1ccccc1)C(=O)NCc1ccccc1 (stereo not given) | 2.3 µM
CC(C)CC(C(=O)NO)C(=O)N1CCCC1C(=O)NCc1ccccc1 (stereo not given) | 168 µM
CC(C)CC(C(=O)NO)C(=O)NCCCc1ccccc1 (stereo not given) | 0.54 µM
CC(C)CC(C(=O)NO)C(=O)NC(CC(=O)O)C(=O)NCc1ccccc1 (stereo in doubt; 12b) | 88 µM
CC(C)C[C@H](C(=O)NO)C(=O)N[C@@H](C)C(=O)NCC(N)=O | 121 µM
Cc1ccc(CCNC(=O)[C@H](CCc2ccccc2)NC(=O)C(O)C(=O)NO)cc1 (stereo not given in full) | 1.6 µM
CC(C)CC(C(=O)NO)C(=O)N[C@H](C)C(=O)NCc1ccccc1 (stereo not given in full) | 194 µM
Cc1ccc(CCNC(=O)[C@H](CCc2ccccc2)NC(=O)C(Cc2ccccc2)C(=O)NO)cc1 (stereo not given in full) | 1.7 µM
CCOC(=O)C(CC(C)C)C(=O)NO (stereo not given) | 190 µM
CCCCCCCCNC(=O)C(CC(C)C)C(=O)NO (stereo not given) | 0.24 µM
CC(C)CC(C(=O)NO)C(=O)NC(CO)C(=O)NCc1ccccc1 (stereo not given) | 35 µM
Cc1ccc(CCNC(=O)[C@H](CCc2ccccc2)NC(=O)C(CC(C)C)C(=O)NO)cc1 (stereo not given in full) | 1.4 µM
CC(C)CC(C(=O)NO)C(=O)NC(CC(N)=O)C(=O)NCc1ccccc1 (stereo not given) | 55 µM
CCOC(=O)C(C(=O)NO)c1ccccc1 (stereo not given) | 98 µM
CC(C)CC(C(=O)NO)C(=O)N[C@@H](CCc1ccccc1)C(=O)NCCc1ccc(O)cc1 (stereo not given in full) | 12 µM
